# Measured values: US8940715B2, “Lipid-regulating agent and use thereof” (Hayashibara Co., Ltd., priority 2003, dated 2015)
# Marks after values point to notes of the source that are not given here.
# Experiments:
# male Wister-rats [1] = assay: Experiment 1-1 amount of lipids in blood plasma; type: in vivo; conditions: 4 weeks, rat
# Excerpt: (§1) Fifty 5-weeks aged male Wister-rats, having a weight of 110 to 120 grams, commercialized by Charles River Japan, Kanagawa, Japan, were fed on a non-fiber feed having a composition shown in Table 1 for one week for habituation. After the habituation, the rats were randomly divided into five groups and each group was fed on either of feeds shown in Table 1, i.e., a non-fiber feed, a feed in which cellulose was incorporated into the non-fiber feed to give a content of 5% (hereinafter, abbreviated as “fiber feed”), a feed in which powdery anhydrous crystalline CTS (purity of CTS: 99.5%), prepared by the method of Example A-3 described later, was incorporated into the non-fiber feed to give a content of 1, 2, or 5%, on a dry solid basis, and the feeding test was carried out for four weeks. A fiber-feed and three kinds of feeds comprising CTS were prepared to give the total content of cellulose or CTS and corn starch of 44.75% to the total weight of each feed. The rats were kept under the conditions of keeping the temperature at 25° C., lighting and shading for 12 hours each/day, and allowing the rats to eat the respective feed and water freely. After the completion of the feeding test, weight of individuals in each group was measured and an average weight and an average increase of weight of each group during the test period were calculated. Also, the total amount of feed fed to individual rat in each group during the 4-weeks test period and an average amount of CTS taken per day per kg-weight-rat were calculated and the results are in Table 2.
# After the feeding test, each rat was fasted for one day and incised under anesthesia with ether. Then, blood was collected from the main vein of each rat using a syringe treated with 1% EDTA. Each collected blood was centrifuged at 3,500 rpm for 10 minutes to separate blood plasma and the contents of total cholesterol, triglyceride, and phospholipids in the resulting blood plasma were measured by using kits, “CHOLESTEROL C-TEST-WAKO”, “TRIGLYCERIDE-TEST-WAKO”, and “PHOSPHOLIPID C-TEST-WAKO”, respectively, commercialized by Wako Pure Chemical Industries, Ltd., Osaka, Japan. In order to check the hepatic function disorder, GOT activity in the blood plasma was measured using a kit, “GOT-TEST-WAKO”, commercialized by Wako Pure Chemical Industries, Ltd., Osaka, Japan. The content of LDL-cholesterol was calculated by subtracting the content of HDL-cholesterol from the total content of cholesterol. A significant difference test was done with respect to the group fed on fiber feed. In the case of cholesterol, a significant difference test was done with respect to the group fed on non-fiber feed because it was believed that cellulose has no activity of reducing the amount of cholesterol by oral intake as described in “SHOKUMOTSU-SENI KISO-TO-OYO (Dietary fiber, its basis and application)” published by ASAKURA-SHOTEN in 1997.
# male Wister-rats [2] = assay: Experiment 1-1 cecal tissue, cecal content and bile acids in cecum; type: in vivo; conditions: 4 weeks, rat
# Excerpt: Fifty 5-weeks aged male Wister-rats, having a weight of 110 to 120 grams, commercialized by Charles River Japan, Kanagawa, Japan, were fed on a non-fiber feed having a composition shown in Table 1 for one week for habituation. After the habituation, the rats were randomly divided into five groups and each group was fed on either of feeds shown in Table 1, i.e., a non-fiber feed, a feed in which cellulose was incorporated into the non-fiber feed to give a content of 5% (hereinafter, abbreviated as “fiber feed”), a feed in which powdery anhydrous crystalline CTS (purity of CTS: 99.5%), prepared by the method of Example A-3 described later, was incorporated into the non-fiber feed to give a content of 1, 2, or 5%, on a dry solid basis, and the feeding test was carried out for four weeks. A fiber-feed and three kinds of feeds comprising CTS were prepared to give the total content of cellulose or CTS and corn starch of 44.75% to the total weight of each feed. […] After the completion of the feeding test, weight of individuals in each group was measured and an average weight and an average increase of weight of each group during the test period were calculated. Also, the total amount of feed fed to individual rat in each group during the 4-weeks test period and an average amount of CTS taken per day per kg-weight-rat were calculated and the results are in Table 2.
# Just after extirpating cecum as described above, its content was collected and weighted. The concentration of bile acids was measured by the steps of adding two milliliters of 80% (v/v) methanol aqueous solution to 0.2 gram of the cecal content, extracting bile acids at 70° C. for 30 min, centrifuging (3,500 rpm, 10 min) the mixture, drying the resulting supernatant in a dessicator with P2O5 for overnight, and measuring bile acids using a kit, “BILE ACID-TEST WAKO”, commercialized by Wako Pure Chemical Industries, Ltd., Osaka, Japan. The amount of bile acids was calculated by multiplying the concentration of bile acids and weight of the cecal content. […]
# [3] = Experiment 1-1 feeding test on rat: weight and amount of feed taken; type: in vivo; conditions: 4 weeks
# Excerpt: as §1
# male Wister-rats [4] = assay: Experiment 1-1 observation of diarrhea during feeding test; type: in vivo, rat
# Excerpt: as §1
# The symptom of diarrhea was not observed in rats fed on a feed with CTS content of 2%.
# male Wister-rats [5] = assay: Experiment 1-1 GOT activity in blood plasma (hepatic function disorder check); type: in vivo, rat; conditions: for GOT: blood plasma, 4 weeks, rat
# Excerpt: as §1
# After the feeding test, each rat was fasted for one day and incised under anesthesia with ether. Then, blood was collected from the main vein of each rat using a syringe treated with 1% EDTA. Each collected blood was centrifuged at 3,500 rpm for 10 minutes to separate blood plasma and the contents of total cholesterol, triglyceride, and phospholipids in the resulting blood plasma were measured by using kits, “CHOLESTEROL C-TEST-WAKO”, “TRIGLYCERIDE-TEST-WAKO”, and “PHOSPHOLIPID C-TEST-WAKO”, respectively, commercialized by Wako Pure Chemical Industries, Ltd., Osaka, Japan. In order to check the hepatic function disorder, GOT activity in the blood plasma was measured using a kit, “GOT-TEST-WAKO”, commercialized by Wako Pure Chemical Industries, Ltd., Osaka, Japan. The content of LDL-cholesterol was calculated by subtracting the content of HDL-cholesterol from the total content of cholesterol. A significant difference test was done with respect to the group fed on fiber feed. […]
# male Wister-rats [6] = assay: Experiment 1-1 liver weight and lipids in liver; type: in vivo; conditions: 4 weeks, rat
# Excerpt: as §1
# (§2) After collecting the blood described above, each rat was killed by dislocating its cervical vertebrae and anatomized. Then, adipose tissues surrounding intestinal membrane, kidney, and testis, as well as liver and cecum, were collected. The wet-weight of those adipose tissues was measured and the results are in Table 4. In the case of liver, the wet-weight and the amount of total lipid, total cholesterol, triglyceride, and phospholipids were measured and the results are in Table 5. The amount of total lipid, total cholesterol, triglyceride, and phospholipids in the liver were measured by the steps of homogenizing four parts by weight of liver with four parts by weight of water using a homogenizer; extracting lipid by repeating three-times the following procedure of adding eight milliliters of a chloroform-methanol (2:1, by volume) solution, stirring the mixture, and centrifuging (3,000 rpm, 15 min) to collect chloroform phase; concentrating the resulting chloroform solution; and measuring those according to the same procedure used in the case of lipids in blood plasma.
# male Wister-rats [7] = assay: Experiment 1-1 wet-weight of adipose tissues around organs; type: in vivo; conditions: 4 weeks, rat
# Excerpt: as §1, §2
# [8] = 5% (w/w) CTS (Fiber: 5% cellulose) in feed
structure (smiles),measurement,setting,value
"OCC1OC2OCC3O[C@H](O[C@H]4C(O)C(CO)OC(OCC5O[C@H](O[C@@H](C1O)C2O)C(O)C(O)[C@@H]5O)C4O)C(O)C(O)[C@@H]3O (stereo partly drawn) [CTS, cyclo {→6)-α-D-glucopyranosyl-(1→3)-α-D-glucopyranosyl-(1→6)-α-D-glucopyranosyl-(1→3)-α-D-glucopyranosyl-(1→}]",Phospholipids,male Wister-rats [1]; 1% (w/w) CTS in feed,116 mg/dL
same,Total cholesterols,male Wister-rats [1]; 1% (w/w) CTS in feed,67.1 mg/dL
same,Triglycerides,male Wister-rats [1]; 1% (w/w) CTS in feed,44.2 mg/dL
same,Phospholipids,male Wister-rats [1]; 2% (w/w) CTS in feed,115 mg/dL
same,Total cholesterols,male Wister-rats [1]; 2% (w/w) CTS in feed,66.1 mg/dL
same,Triglycerides,male Wister-rats [1]; 2% (w/w) CTS in feed,28.7* mg/dl
same,Phospholipids,male Wister-rats [1]; [8],107 mg/dL
same,Total cholesterols,male Wister-rats [1]; [8],59.4* mg/dl
same,Triglycerides,male Wister-rats [1]; [8],21.7* mg/dl
same,Bile acids in cecum,male Wister-rats [2]; 1% (w/w) CTS in feed,1.15* μmol
same,Bile acids in cecum,male Wister-rats [2]; 2% (w/w) CTS in feed,1.36* μmol
same,Bile acids in cecum,male Wister-rats [2]; [8],1.53* μmol
same,Increase of weight,[3]; 1% (w/w) CTS in feed,164 g/individual/28 days
same,Weight,[3]; 1% (w/w) CTS in feed,337 g/individual
same,Increase of weight,[3]; 2% (w/w) CTS in feed,169 g/individual/28 days
same,Weight,[3]; 2% (w/w) CTS in feed,342 g/individual
same,Increase of weight,[3]; [8],149* g/individual/28 days
same,Weight,[3]; [8],322* g/individual
same,symptom of diarrhea,male Wister-rats [4]; rats fed on a feed with CTS content of 2%,not observed
same,duration of symptom of diarrhea after initial intake of CTS,male Wister-rats [4]; rats fed on a feed with CTS content of 5%,2 to 3 days
same,symptom of diarrhea (individuals affected),"male Wister-rats [4]; rats fed on a feed with CTS content of 5%, then cured",two individuals in ten individuals
same,GOT,male Wister-rats [5]; 1% (w/w) CTS in feed,10.3 IU
same,GOT,male Wister-rats [5]; 2% (w/w) CTS in feed,10.2 IU
same,GOT,male Wister-rats [5]; [8],10.7 IU
same,GOT values (markers of functional disorder of liver) during the test period,"male Wister-rats [5]; rats, regardless of the intake of CTS",not significantly changed
same,Phospholipids in liver,male Wister-rats [6]; 1% (w/w) CTS in feed,140 mg/individual
same,Total cholesterols in liver,male Wister-rats [6]; 1% (w/w) CTS in feed,35.9 mg/individual
same,Total lipids in liver,male Wister-rats [6]; 1% (w/w) CTS in feed,510 mg/individual
same,Triglycerides in liver,male Wister-rats [6]; 1% (w/w) CTS in feed,186 mg/individual
same,Phospholipids in liver,male Wister-rats [6]; 2% (w/w) CTS in feed,149 mg/individual
same,Total cholesterols in liver,male Wister-rats [6]; 2% (w/w) CTS in feed,37.2 mg/individual
same,Total lipids in liver,male Wister-rats [6]; 2% (w/w) CTS in feed,598 mg/individual
same,Triglycerides in liver,male Wister-rats [6]; 2% (w/w) CTS in feed,254 mg/individual
same,Phospholipids in liver,male Wister-rats [6]; [8],142 mg/individual
same,Total cholesterols in liver,male Wister-rats [6]; [8],35.4 mg/individual
same,Total lipids in liver,male Wister-rats [6]; [8],575 mg/individual
same,Triglycerides in liver,male Wister-rats [6]; [8],239 mg/individual
same,Adipose surrounding intestinal membrane,male Wister-rats [7]; 1% (w/w) CTS in feed,3.7 g/individual
same,Adipose surrounding kidney,male Wister-rats [7]; 1% (w/w) CTS in feed,3.7* g/individual
same,Adipose surrounding testis,male Wister-rats [7]; 1% (w/w) CTS in feed,4.0* g/individual
same,Adipose surrounding intestinal membrane,male Wister-rats [7]; 2% (w/w) CTS in feed,3.1* g/individual
same,Adipose surrounding kidney,male Wister-rats [7]; 2% (w/w) CTS in feed,2.9* g/individual
same,Adipose surrounding testis,male Wister-rats [7]; 2% (w/w) CTS in feed,3.9* g/individual
same,Adipose surrounding intestinal membrane,male Wister-rats [7]; [8],1.9* g/individual
same,Adipose surrounding kidney,male Wister-rats [7]; [8],2.1* g/individual
same,Adipose surrounding testis,male Wister-rats [7]; [8],3.1* g/individual
